pIC50: −log10 of the molar value. Where “and” joins values, the source holds several entries; their conditions need not be identical. Equal entries are not always repeated.
Tested on: 349418-098-R-PDC complex spheroid growth
Test: Anticancer human tumor 349418-098-R-PDC patient-derived lung adenocarcinoma cell line growth inhibition [AhR]
Settings: for viability, T/C: stronger effect = lower value
Summary of the method: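 Complex tumor spheroids co-cultured with HUVEC and human MSC stroma; AhR antagonists tested in combination with standard-of-care and investigational agents. Top concentration at or near clinical Cmax (else 10 microM), half-log dilutions; growth expressed as percent test/control.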

[1] = curve of first compound, second compound 0.1 µM
[2] = curve of first compound, second compound 0.316 µM
[3] = curve of first compound, second compound 1 µM
[4] = curve of first compound, second compound 3.16 µM
[5] = curve of first compound, second compound 10 µM
[6] = second compound 0.1 µM, first compound 0.0316 µM
[7] = second compound 0.1 µM, first compound 0.1 µM
[8] = second compound 0.1 µM, first compound 0.316 µM
[9] = second compound 0.1 µM, first compound 1 µM
[10] = second compound 0.1 µM, first compound 3.16 µM
[11] = second compound 0.1 µM, first compound 10 µM
[12] = second compound 0.316 µM, first compound 0.0316 µM
[13] = second compound 0.316 µM, first compound 0.1 µM
[14] = second compound 0.316 µM, first compound 0.316 µM
[15] = second compound 0.316 µM, first compound 1 µM
[16] = second compound 0.316 µM, first compound 3.16 µM
[17] = second compound 0.316 µM, first compound 10 µM
[18] = second compound 1 µM, first compound 0.0316 µM
[19] = second compound 1 µM, first compound 0.1 µM
[20] = second compound 1 µM, first compound 0.316 µM
[21] = second compound 1 µM, first compound 1 µM
[22] = second compound 1 µM, first compound 3.16 µM
[23] = second compound 1 µM, first compound 10 µM
[24] = second compound 3.16 µM, first compound 0.0316 µM
[25] = second compound 3.16 µM, first compound 0.1 µM
[26] = second compound 3.16 µM, first compound 0.316 µM
[27] = second compound 3.16 µM, first compound 1 µM
[28] = second compound 3.16 µM, first compound 3.16 µM
[29] = second compound 3.16 µM, first compound 10 µM
[30] = second compound 10 µM, first compound 0.0316 µM
[31] = second compound 10 µM, first compound 0.1 µM
[32] = second compound 10 µM, first compound 0.316 µM
[33] = second compound 10 µM, first compound 1 µM
[34] = second compound 10 µM, first compound 3.16 µM
[35] = second compound 10 µM, first compound 10 µM
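Also: spheroids exposed to agents for seven days before luminescence viability read.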
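For viability, T/C in this document: spheroids also contain HUVEC endothelial cells and human MSC stroma.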

SMILES	pIC50 [1]	pIC50 [2]	pIC50 [3]	pIC50 [4]	pIC50 [5]	viability, T/C [6]	viability, T/C [7]	viability, T/C [8]	viability, T/C [9]	viability, T/C [10]	viability, T/C [11]	viability, T/C [12]	viability, T/C [13]	viability, T/C [14]	viability, T/C [15]	viability, T/C [16]	viability, T/C [17]	viability, T/C [18]	viability, T/C [19]	viability, T/C [20]	further results
O=C(c1cc(Cc2n[nH]c(=O)c3ccccc23)ccc1F)N1CCN(C(=O)C2CC2)CC1 + Cc1cncc(-c2nc(NCCc3c[nH]c4ccccc34)c3ncn(C(C)C)c3n2)c1	< 5.00	< 5.00	< 5.00	> 7.50	> 7.50	75.7%	91.6%	98.3%	89.9%	75.2%	58.8%	94.8%	102%	99.4%	82.3%	74.7%	64.4%	81.7%	86.7%	84.1%	viability, T/C [21]: 67.2%; viability, T/C [22]: 75.5%; viability, T/C [23]: 65.1%; viability, T/C [24]: 17.7%; viability, T/C [25]: 19%; viability, T/C [26]: 14.9%; viability, T/C [27]: 12.7%; viability, T/C [28]: 15%; viability, T/C [29]: 13.9%; viability, T/C [30]: 1.12%; viability, T/C [31]: 1.3%; viability, T/C [32]: 0.99%; viability, T/C [33]: 1.23%; viability, T/C [34]: 1.33%; viability, T/C [35]: 1.37%
CC1(C)CCC(CN2CCN(c3ccc(C(=O)NS(=O)(=O)c4ccc(NCC5CCOCC5)c([N+](=O)[O-])c4)c(Oc4cnc5[nH]ccc5c4)c3)CC2)=C(c2ccc(Cl)cc2)C1 + CC(CO)NC(=O)c1cc(-c2ccc(Cl)cc2)nn(-c2cnn(C)c2)c1=O	5.18	5.34	5.26	5.52	> 7.50	77.7%	89.9%	96.2%	76.9%	82.5%	32.2%	85.2%	81.1%	70.2%	66.9%	65.9%	27.8%	89.3%	97.4%	80%	viability, T/C [21]: 65%; viability, T/C [22]: 79.2%; viability, T/C [23]: 28.2%; viability, T/C [24]: 80%; viability, T/C [25]: 86.8%; viability, T/C [26]: 77%; viability, T/C [27]: 71.4%; viability, T/C [28]: 49%; viability, T/C [29]: 24%; viability, T/C [30]: 45%; viability, T/C [31]: 54.1%; viability, T/C [32]: 48.9%; viability, T/C [33]: 48.5%; viability, T/C [34]: 48.2%; viability, T/C [35]: 26.6%
CC(C)c1c(-c2ccccc2)nc2c(C#N)c[nH]n2c1=O																					viability, T/C (compound 0.0316 µM): 112% and 92.6% and 89.1%; viability, T/C (compound 0.1 µM): 106% and 83.2% and 76.1%; viability, T/C (compound 0.316 µM): 100% and 78.1% and 72%; viability, T/C (compound 1 µM): 103% and 77.8% and 82.3%; viability, T/C (compound 3.16 µM): 108% and 86.8% and 85.3%; viability, T/C (compound 10 µM): 91.6% and 86.8% and 79.7%; pIC50 (curve of compound): < 5.00

— PubChem BioAssay AID1918996 (Molecular Pharmacology Branch, DTP, NCI, 2023)
